The source of these data is US9618524B2, “Method, composition, isolation and identification of a plaque particle and related biomarker” (Plaxgen Inc., priority 2012, dated 2017).

Common to all, as to assay: Mass spectroscopy proteomics, semi-quantitative binding affinity of serum proteins (plaqueproteome, Table 2)
What all share (conditions): higher number = stronger affinity

The test system of one assay is Tau plaque particles. The arrangement: species or system human. In short, it runs like this: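 Synthetic Tau-74 and Tau-275 peptides (1 mg/mL PBS, 37° C, 2 h) aggregated; 30 μg aggregates incubated with 50% serum/plasma 1 h at 37° C, stained with Thioflavin S, and plaque particles sorted by flow cytometry. Bound proteins trypsin-digested and identified by MS/MS against human UniProt.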

In assay [1] the target is T1, alpha-synuclein plaque particles (Homo sapiens, UniProt P37840).
T1 construct: 140 amino acids polypeptide
In short, it runs like this: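 AD-subject plasma or serum (800 μL of 50%) mixed with 30 μg preformed alpha-synuclein aggregates for 1 h at 37 °C; Thioflavin S-positive particles isolated by flow sorting. After reduction, acrylamide alkylation and overnight tryptic digestion, serum proteins identified by MS/MS with Sequest and Scaffold.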

Assay [2] has as its system High Density cholesterol (Chl Large) plaque particles. The arrangement: species or system human. In short, it runs like this:
(§1)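 Proteins bound to flow-sorted cholesterol plaque particles (large/high-density or small/low-density gates) were identified by LC-MS/MS after trypsin digestion. Particles were formed from 50% atherosclerotic serum or plasma with 30 μg cholesterol aggregates, 1 h, 37 °C. Sequest human database search; Scaffold validation.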

Assay [3] concerns Low density cholesterol (Chl small) plaque particles. The arrangement: species or system human. In a few lines:
as §1

In assay [4] the target is T2, Abeta-42 plaque particles (Homo sapiens, UniProt P05067).
T2 construct: Abeta 1-42
In short, it runs like this: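 AD patient serum or plasma (50% in PBS) was incubated with Abeta-42 aggregates (30 μg) for 1 h at 37 °C, then stained with Thioflavin S for 30 min. Labeled particles were FACS-sorted, trypsin/Lys-C digested overnight and analyzed by MS/MS. Sequest searched human UniProt; Scaffold/Protein Prophet validated the identifications.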

For Serum amyloid P-component, in the assay on Tau plaque particles, the “Semi-quantitative analysis of proteins binding to different plaque particles: Tau” value is on record as 2. The “Semi-quantitative analysis of proteins binding to different plaque particles: Synuclein” value in assay [1] was determined as 0. Moreover, the “Semi-quantitative analysis of proteins binding to different plaque particles: Chl Large” value in assay [2] was determined as 1. Further, in assay [3], the “Semi-quantitative analysis of proteins binding to different plaque particles: Chl small” value is on record as 1. In addition, the “Semi-quantitative analysis of proteins binding to different plaque particles: Abeta-42” value in assay [4] was determined as 5.
With “Glyceraldehyde-3-phosphate dehydrogenase”, the “Semi-quantitative analysis of proteins binding to different plaque particles: Tau” value in the assay with Tau plaque particles turned out to be 0. Moreover, in assay [1], the “Semi-quantitative analysis of proteins binding to different plaque particles: Synuclein” value worked out at 0. Moreover, in assay [2], the “Semi-quantitative analysis of proteins binding to different plaque particles: Chl Large” value was determined as 0. In assay [3], the “Semi-quantitative analysis of proteins binding to different plaque particles: Chl small” value came to 0. The “Semi-quantitative analysis of proteins binding to different plaque particles: Abeta-42” value in assay [4] is 5.
Turning to Ig heavy chain V-III region NIE, the “Semi-quantitative analysis of proteins binding to different plaque particles: Tau” value with Tau plaque particles came to 0. For the same substance, the “Semi-quantitative analysis of proteins binding to different plaque particles: Synuclein” value in assay [1] was determined as 1. The “Semi-quantitative analysis of proteins binding to different plaque particles: Chl Large” value in assay [2] was determined as 1. Moreover, the “Semi-quantitative analysis of proteins binding to different plaque particles: Chl small” value in assay [3] came to 1. For the same substance, the “Semi-quantitative analysis of proteins binding to different plaque particles: Abeta-42” value in assay [4] came out at 0.
With Ig lambda-6 chain C region, the “Semi-quantitative analysis of proteins binding to different plaque particles: Tau” value in the assay on Tau plaque particles came out at 5. Besides, in assay [1], the “Semi-quantitative analysis of proteins binding to different plaque particles: Synuclein” value is reported as 6. In assay [2], the “Semi-quantitative analysis of proteins binding to different plaque particles: Chl Large” value was 3. Also, the “Semi-quantitative analysis of proteins binding to different plaque particles: Chl small” value in assay [3] stood at 3. In assay [4], the “Semi-quantitative analysis of proteins binding to different plaque particles: Abeta-42” value is recorded as 5.
With Ig heavy chain V-III region VH26, in the assay on Tau plaque particles, the “Semi-quantitative analysis of proteins binding to different plaque particles: Tau” value is recorded as 3. Further, the “Semi-quantitative analysis of proteins binding to different plaque particles: Synuclein” value in assay [1] stood at 1. Besides, in assay [2], the “Semi-quantitative analysis of proteins binding to different plaque particles: Chl Large” value is reported as 2. In assay [3], the “Semi-quantitative analysis of proteins binding to different plaque particles: Chl small” value came to 3. Further, the “Semi-quantitative analysis of proteins binding to different plaque particles: Abeta-42” value in assay [4] was found to be 7.
For the substance Complement component C8 beta chain, the “Semi-quantitative analysis of proteins binding to different plaque particles: Tau” value in the assay with Tau plaque particles is on record as 2. Also, the “Semi-quantitative analysis of proteins binding to different plaque particles: Synuclein” value in assay [1] was 0. Further, the “Semi-quantitative analysis of proteins binding to different plaque particles: Chl Large” value in assay [2] was found to be 1. Also, the “Semi-quantitative analysis of proteins binding to different plaque particles: Chl small” value in assay [3] came out at 2. In assay [4], the “Semi-quantitative analysis of proteins binding to different plaque particles: Abeta-42” value worked out at 0.
With Ig kappa chain V-III region IARC/BL41, the “Semi-quantitative analysis of proteins binding to different plaque particles: Tau” value in the assay with Tau plaque particles worked out at 2. The “Semi-quantitative analysis of proteins binding to different plaque particles: Synuclein” value in assay [1] is recorded as 0. Moreover, the “Semi-quantitative analysis of proteins binding to different plaque particles: Chl Large” value in assay [2] was found to be 0. Besides, in assay [3], the “Semi-quantitative analysis of proteins binding to different plaque particles: Chl small” value stood at 1. Moreover, the “Semi-quantitative analysis of proteins binding to different plaque particles: Abeta-42” value in assay [4] amounted to 0.
On to Cluster of Haptoglobin, for which the “Semi-quantitative analysis of proteins binding to different plaque particles: Tau” value with Tau plaque particles is reported as 26. The “Semi-quantitative analysis of proteins binding to different plaque particles: Synuclein” value in assay [1] was found to be 24. Further, in assay [2], the “Semi-quantitative analysis of proteins binding to different plaque particles: Chl Large” value was 29. Moreover, in assay [3], the “Semi-quantitative analysis of proteins binding to different plaque particles: Chl small” value is on record as 31. In addition, the “Semi-quantitative analysis of proteins binding to different plaque particles: Abeta-42” value in assay [4] is on record as 25.
In the same order, the values of Isoform 3 of Fibronectin are 23, 16, 25, 19 and 9.
The matching figures for Complement C3: 85, 71, 73, 67 and 63.
